# Measurements: patent US20030166932A1 (priority 2002, published 2003)
# What was measured:
# RXRβ [1] = molecular target: T1, RXRβ (UniProt P28704); experiment: ligand binding assay; conditions: read-out: RXR Bind Ki (nM) β
# T1 sequence (P28704 1-520): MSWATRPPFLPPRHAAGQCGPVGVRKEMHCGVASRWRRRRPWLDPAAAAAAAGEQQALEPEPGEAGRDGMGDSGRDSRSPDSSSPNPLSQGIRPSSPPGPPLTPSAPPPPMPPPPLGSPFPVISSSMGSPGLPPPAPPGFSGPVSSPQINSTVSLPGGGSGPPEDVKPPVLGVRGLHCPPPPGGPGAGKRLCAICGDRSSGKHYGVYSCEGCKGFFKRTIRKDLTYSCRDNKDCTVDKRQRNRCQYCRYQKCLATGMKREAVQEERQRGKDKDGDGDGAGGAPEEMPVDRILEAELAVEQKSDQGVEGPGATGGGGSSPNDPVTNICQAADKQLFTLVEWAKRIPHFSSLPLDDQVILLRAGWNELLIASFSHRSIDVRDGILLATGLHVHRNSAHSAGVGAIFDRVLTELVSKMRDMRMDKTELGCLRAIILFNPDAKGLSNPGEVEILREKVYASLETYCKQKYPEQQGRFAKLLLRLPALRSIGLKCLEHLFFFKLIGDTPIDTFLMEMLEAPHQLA
# Excerpt: (§1) The results obtained in this assay are expressed in EC50 numbers, as they are also in the chimeric receptor transactivation assay. The results of ligand binding assay are expressed in Kd numbers.
# (§2) Particularly, the transactivation data pertaining to RAR receptors were obtained in the chimeric assay, and the data pertaining to transactivation of RXR receptors were obtained in the holoreceptor transactivation assay.
# RARγ = molecular target: T2, RARγ (Homo sapiens, UniProt P13631); experiment: ligand binding assay; conditions: read-out: RAR Bind. Ki (nM) Y
# T2 sequence (P13631 1-454): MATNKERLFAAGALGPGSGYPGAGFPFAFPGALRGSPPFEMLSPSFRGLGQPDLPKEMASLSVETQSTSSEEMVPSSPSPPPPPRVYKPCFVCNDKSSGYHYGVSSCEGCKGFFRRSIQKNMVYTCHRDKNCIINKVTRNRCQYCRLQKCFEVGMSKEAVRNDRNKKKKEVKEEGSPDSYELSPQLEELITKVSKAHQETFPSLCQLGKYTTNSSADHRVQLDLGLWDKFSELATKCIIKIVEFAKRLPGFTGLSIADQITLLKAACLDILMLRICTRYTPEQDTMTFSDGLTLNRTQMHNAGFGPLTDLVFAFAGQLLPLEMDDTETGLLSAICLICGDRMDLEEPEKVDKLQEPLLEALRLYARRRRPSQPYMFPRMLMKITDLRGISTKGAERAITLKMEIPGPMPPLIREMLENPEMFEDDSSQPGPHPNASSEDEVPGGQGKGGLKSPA
# Excerpt: as §1, §2
# RXRα [2] = molecular target: T3, RXRα (Homo sapiens, UniProt P19793); experiment: ligand binding assay
# T3 sequence (P19793 1-462): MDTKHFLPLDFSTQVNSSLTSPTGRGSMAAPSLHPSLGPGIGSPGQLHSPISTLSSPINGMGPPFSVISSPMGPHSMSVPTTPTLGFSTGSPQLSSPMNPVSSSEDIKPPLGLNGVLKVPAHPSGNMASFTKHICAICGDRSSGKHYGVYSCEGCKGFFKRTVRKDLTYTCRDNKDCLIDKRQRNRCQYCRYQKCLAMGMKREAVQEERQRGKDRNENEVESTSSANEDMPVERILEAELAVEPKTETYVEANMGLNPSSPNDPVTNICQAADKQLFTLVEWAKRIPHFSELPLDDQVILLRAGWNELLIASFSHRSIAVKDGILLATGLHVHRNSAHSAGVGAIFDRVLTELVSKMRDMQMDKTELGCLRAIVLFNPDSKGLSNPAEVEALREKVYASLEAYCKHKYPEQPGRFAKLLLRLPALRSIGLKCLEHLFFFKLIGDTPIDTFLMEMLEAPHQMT
# Excerpt: as §1, §2
# RARβ = molecular target: T4, RARβ (Homo sapiens, UniProt P10826); experiment: ligand binding assay; conditions: read-out: RAR Bind. Ki (nM) β
# T4 sequence (P10826 1-455): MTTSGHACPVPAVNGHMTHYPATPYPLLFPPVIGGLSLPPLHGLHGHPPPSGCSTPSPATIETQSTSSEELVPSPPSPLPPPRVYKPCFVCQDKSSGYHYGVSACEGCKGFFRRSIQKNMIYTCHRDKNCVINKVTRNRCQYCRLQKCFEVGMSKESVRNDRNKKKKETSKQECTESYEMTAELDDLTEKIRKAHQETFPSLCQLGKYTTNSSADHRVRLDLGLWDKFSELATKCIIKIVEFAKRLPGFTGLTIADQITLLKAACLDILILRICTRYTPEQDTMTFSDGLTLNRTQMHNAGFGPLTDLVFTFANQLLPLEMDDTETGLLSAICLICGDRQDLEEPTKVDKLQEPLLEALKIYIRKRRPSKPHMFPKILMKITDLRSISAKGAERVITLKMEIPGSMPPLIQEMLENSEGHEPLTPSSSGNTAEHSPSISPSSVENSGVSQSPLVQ
# Excerpt: as §1, §2
# RXRγ [3] = molecular target: T5, RXRγ (UniProt P28705); experiment: ligand binding assay; conditions: read-out: RXR Bind Ki (nM) Y
# T5 sequence (P28705 1-463): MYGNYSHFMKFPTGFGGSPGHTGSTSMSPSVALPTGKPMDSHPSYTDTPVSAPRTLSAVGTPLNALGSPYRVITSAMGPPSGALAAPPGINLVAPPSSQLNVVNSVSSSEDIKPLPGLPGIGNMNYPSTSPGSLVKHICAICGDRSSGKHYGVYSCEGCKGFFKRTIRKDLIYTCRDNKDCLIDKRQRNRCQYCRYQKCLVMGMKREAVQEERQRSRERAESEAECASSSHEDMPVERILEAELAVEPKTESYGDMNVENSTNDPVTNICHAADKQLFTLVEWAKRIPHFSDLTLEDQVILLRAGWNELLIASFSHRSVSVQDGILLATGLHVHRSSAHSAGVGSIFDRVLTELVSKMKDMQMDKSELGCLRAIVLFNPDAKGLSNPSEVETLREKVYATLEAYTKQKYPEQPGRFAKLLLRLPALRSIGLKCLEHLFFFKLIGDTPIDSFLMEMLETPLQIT
# RXRγ [4] = molecular target: T5, RXRγ; experiment: holoreceptor transactivation assay; type: cell-based; conditions: for EC50: NA = Not Active, read-out: RXR Trans. EC50 (nM) Y; for % efficacy, RXR Trans. Y: relative to 10^−6 M AGN 194204
# Excerpt: as §1, §2
# RXRα [5] = molecular target: T3, RXRα; experiment: holoreceptor transactivation assay; conditions: for Emax: read-out: % efficacy, RXR Trans. α
# Excerpt: as §1, §2
# RXRβ [6] = molecular target: T1, RXRβ; experiment: holoreceptor transactivation assay; type: cell-based; conditions: for EC50: NA = Not Active, read-out: RXR Trans. EC50 (nM) β; for % efficacy, RXR Trans. β: relative to 10^−6 M AGN 194204
# Excerpt: as §1, §2
Ki (RXRβ [1]),Ki (RARγ),Ki (RXRα [2]),Ki (RARβ),Ki (RXRγ [3]),EC50 (RXRγ [4]),"% efficacy, RXR Trans. Y (RXRγ [4])",EC50 (RXRα [5]),Emax (RXRα [5]),EC50 (RXRβ [6]),"% efficacy, RXR Trans. β (RXRβ [6])",Structure (SMILES)
> 1000 nM,> 10000 nM,> 1000 nM,> 10000 nM,> 1000 nM,> 1000 nM,(15) %,> 1000 nM,30%,,,"CC1=CCC(C)(C)c2cc(N(C)c3ccc(C(=O)O)cc3)c(C)cc21 [Compound 44, 4-[Methyl(3,5,8,8-tetramethyl-7,8-dihydronaphthalen-2-yl)amino]benzoic acid]"
155 nM,> 10000 nM,54 nM,1200 nM,248 nM,,,,,,,"CCN(c1ccc(C(=O)O)cc1)c1cc2c(cc1OC(C)C)C(C)(C)CC=C2C(C)C [Compound 151, 4-[Ethyl-(3-isopropoxy-5,5-dimethyl-8-isopropyl-5,6-dihydronaphthalen-2-yl)amino]benzoic acid]"
> 10000 nM,> 10000 nM,> 10000 nM,> 10000 nM,> 10000 nM,,(65) %,,55%,> 1000 nM,(8) %,"CCCN(c1ccc(C(=O)O)cc1)c1cc2c(cc1C)C(C)=CCC2(C)C [Compound 46, 4-[n-Propyl(3,5,8,8-tetramethyl-7,8-dihydronaphthalen-2-yl)amino]benzoic acid]"
34 nM,,7 nM,> 10000 nM,8 nM,1 nM,105) %,1 nM,108%,8 nM,(93) %,CCCN(c1ccc(C(=O)O)cc1)c1ccc2c(c1)C(C(C)(C)C)=CCC2(C)C [Compound 89]
> 1000 nM,> 10000 nM,485 nM,> 10000 nM,,,(85) %,378 nM,66%,> 1000 nM,(40) %,"CCCN(c1ccc(C(=O)O)cc1)c1cc2c(cc1C)C(C(C)C)=CCC2(C)C [Compound 54, 4-[n-Propyl-(5-isopropyl-3,8,8-trimethyl-7,8-dihydronaphthalen-2-yl)lamino]benzoic acid]"
334 nM,2900 nM,3 nM,1400 nM,398 nM,,,,,,,"CCN(c1ccc(C(=O)O)cc1)c1cc2c(cc1OCc1ccc(C)cc1)C(C)(C)CC=C2C(C)C [Compound 155, 4-{Ethyl-[8-isopropyl-5,5-dimethyl-3-(4-methylbenzyloxy)-5,6-dihydronaphthalen-2-yl]amino}benzoic acid]"
208 nM,7900 nM,61 nM,3800 nM,352 nM,,,,,,,"CCCOc1cc2c(cc1N(CC)c1ccc(C(=O)O)cc1)C(C(C)C)=CCC2(C)C [Compound 150, 4-[Ethyl-(8-isopropyl-5,5-dimethyl-3-n-propoxy-5,6-dihydronaphthalen-2-yl)amino]benzoic acid]"
> 1000 nM,> 10000 nM,> 1000 nM,> 10000 nM,> 1000 nM,> 1000 nM,(25) %,,50%,,,"CCN(c1ccc(C(=O)O)cc1)c1cc2c(cc1C)C(C)=CCC2(C)C [Compound 45, 4-[Ethyl(3,5,8,8-tetramethyl-7,8-dihydronaphthalen-2-yl)amino]benzoic acid]"
426 nM,,64 nM,> 10000 nM,101 nM,182 nM,(124) %,72 nM,88%,,(60) %,"CCN(c1ccc(C(=O)O)cc1)c1cc2c(cc1C)C(C(C)(C)C)=CCC2(C)C [Compound 60, 4-[Ethyl-(5-t-butyl-3,8,8-trimethyl-7,8-dihydronaphthalen-2-yl)amino]benzoic acid]"

# Further lines, the molecule ahead of its results:
Structure (SMILES),Ki (RXRβ [1]),Ki (RARγ),Ki (RXRα [2]),Ki (RARβ),Ki (RXRγ [3]),EC50 (RXRγ [4]),"% efficacy, RXR Trans. Y (RXRγ [4])",EC50 (RXRα [5]),Emax (RXRα [5]),EC50 (RXRβ [6]),"% efficacy, RXR Trans. β (RXRβ [6])"
"CCN(c1ccc(C(=O)O)cc1)c1cc2c(cc1OCc1ccccc1)C(C)(C)CC=C2C(C)C [Compound 154, 4-[(3-Benzyloxy-8-isopropyl-5,5-dimethyl-5,6-dihydronaphthalen-2-yl)ethylamino]benzoic acid]",19 nM,6200 nM,3 nM,1800 nM,41 nM,,,,,,
CCN(c1ccc(C(=O)O)cc1)c1cc2c(cc1OCc1ccccc1)C(C)(C)CC=C2C(C)(C)C [Compound 158],3 nM,881 nM,4 nM,374 nM,161 nM,,,,,,
"CCCCOc1cc2c(cc1N(CC)c1ccc(C(=O)O)cc1)C(C(C)C)=CCC2(C)C [Compound 152, 4-[(3-n-Butoxy-8-isopropyl-5,5-dimethyl-5,6-dihydronaphthalen-2-yl)ethylamino]benzoic acid]",136 nM,,29 nM,2300 nM,437 nM,,,,,,
"CCN(c1ccc(C(=O)O)cc1)c1cc2c(cc1OCc1cc(C(C)(C)C)cc(C(C)(C)C)c1)C(C)(C)CC=C2C(C)C [Compound 156, 4-{[3-(3,5-di-t-butylbenzyloxy)-8-isopropyl-5,5-dimethyl-5,6-dihydronaphthalen-2-yl]ethylamino}benzoic acid]",> 1000 nM,4200 nM,804 nM,1500 nM,> 1000 nM,,,,,,
"CCN(c1ccc(C(=O)O)cc1)c1cc2c(cc1C)C(C(C)C)=CCC2(C)C [Compound 53, 4-[Ethyl-(5-isopropyl-3,8,8-trimethyl-7,8-dihydronaphthalen-2-yl)amino]benzoic acid]",> 1000 nM,> 10000 nM,1200 nM,> 10000 nM,,,(75) %,,65%,> 1000 nM,(20) %
"CC1=CCC(C)(C)c2cc(N(C)c3ccc(C(=O)O)cc3)ccc21 [Compound 67, 4-[Methyl-(5,8,8-trimethyl-7,8-dihydro-naphthalen-2-yl)-amino]-benzoic acid]",> 1000 nM,,666 nM,> 10000 nM,1300 nM,,,,,,
